Measurements: patent US20200341014A1, “PD Marker of Hepatocyte Growth Factor (HGF)” (EISAI R&D MANAGEMENT CO., LTD., priority 2016, published 2020)

What was measured:
[1] = tested on: ApoA4 protein; experiment: Western blot quantification of serum ApoA4 protein in mice administered rh-HGF and c-Met inhibitor (Example 2); type: in vivo, mouse; conditions: FIG. 3
Experimental: (§1) To BALB/cAnNCrlCrlj male 6 weeks-old mice (CHARLES RIVER JAPAN), c-Met inhibitor PF-04217903 (50 mg/kg) (Selleck Chemicals #S1094, lot. 05) or vehicle (5% DMSO, 10% Tween80, 6.7 mmol/L aqueous hydrochloric acid solution) was orally administered at a dose of 10 mL/kg, and after 1 hour, rh-HGF (0.5, 1.5, 5.0, or 15 mg/kg) or PBS was intravenously administered. […] After euthanization, hepatic tissue was collected and immersed in RNA later (Ambion, #AM7021). Serum was collected from the blood collected.
Using the above serum, ApoA4 protein was quantified by Western blot method. To the serum diluted 200-folds with PBS (−) (Wako), ¼ volume of the electrophoresis buffer solution (313 mM Tris-HCl (pH 6.8), 10% SDS, 30% Glycerol, 0.2 mg/mL Bromo-phenol blue, and 25% 2-Mercaptoethnol) was added (the final dilution of the serum will be 250-folds), and this was subjected to heat treatment at 95° C. for 3 minutes. […] After washing three times with the above wash solution, chemiluminescence solution SuperSignal West Dura Extended Duration Substrate (Thermo Scientific) was added to allow luminescence, and ApoA4 protein was detected with LAS-4000 (FUJIFILM).
For the results of serum ApoA4 protein quantification, Dunnett's multiple comparison test was carried out between the control and the rh-HGF administration groups.

[2] = tested on: human ApoA4 mRNA; experiment: Real-time PCR of human ApoA4 mRNA in human primary culture hepatocytes treated with rh-HGF; type: cell-based; conditions: FIG. 5
Experimental: (§2) Human primary culture hepatocytes seeded in a 24-well plate (3.8×10^5 cells/well, Biopredic International, #HEP220-MW24) were cultured for three days in Incubation Medium (product name: Biopredic International, #MIL214), then c-Met inhibitor PF-04217903 (final concentration 100 nmol/L) (Selleck Chemicals, #S1094, lot. 05) or vehicle (DMSO) was added, and after 1 hour, rh-HGF (final concentration 100, 300, or 1000 ng/mL) or (Incubation Medium) for the control group (Control) was added.
From hepatocytes 24 hours after addition of rh-HGF, total RNA was purified with RNeasy Mini Kit (QIAGEN, #74104) and RNase-Free DNase set (QIAGEN, #79254), and RNA concentration was measured by absorbance. The purified total RNA was reverse transcripted using High-Capacity cDNA Reverse Transcription Kit with RNase Inhibitor (Applied Biosystems, #4374966) to create cDNA. With the cDNA obtained as the template, the amount of ApoA4 mRNA expressed was examined by real-time PCR method. 18S rRNA was used as the internal control for examination. […]
(§3) With the results of ApoA4 mRNA quantification, Dunnett's multiple comparison test was carried out between the control and the rh-HGF administration groups.

[3] = tested on: ApoA4 mRNA; experiment: Real-time PCR of liver ApoA4 mRNA in mice administered rh-HGF and c-Met inhibitor (Example 2); type: in vivo, mouse; conditions: FIG. 2
Experimental: as §1
From the harvested liver, total RNA was purified with TRIZOL Reagent (Invitrogen, #15596-018), RNeasy Mini Kit (QIAGEN, #74104), and RNase-Free DNase set (QIAGEN, #79254), and RNA concentration was measured by absorbance.
Quantification of ApoA4 mRNA by real-time PCR method was carried out according to Example 1.
as §3

[4] = tested on: human ApoA4 protein; experiment: Western blot quantification of human ApoA4 protein in human hepatocyte culture supernatant; type: cell-based; conditions: FIG. 6
Experimental: as §2
Using hepatocyte culture supernatant (the same culture supernatant as that of cells for preparation of mRNA) 24 Hours after addition of rh-HGF, ApoA4 protein was quantified by Western blot method. […] After washing three times with the above wash solution, chemiluminescence solution SuperSignal West Dura Extended Duration Substrate (Thermo Scientific) was added to allow luminescence, and ApoA4 protein was detected with LAS-4000 (FUJIFILM).
With the quantification results of ApoA4 protein, Dunnett's multiple comparison test was carried out between the control and the rh-HGF administration groups.

[5] = tested on: Jo2 liver failure model; experiment: Severity of hepatopathy (AST, ALT, PT) in Jo2 liver failure model; type: in vivo, mouse; conditions: Jo2 liver failure mice, rh-HGF into tail vein 1 hour before anti-Fas MAb, 5 hours after MAb; FIG. 4
Experimental: To BALB/cAnNCrlCrlj male 6 weeks-old mice (CHARLES RIVER JAPAN), 0.23 mg/kg of anti-Fas monoclonal antibody (clone name: Jo2, BD Pharmingen, #554254, lot#3269634) was administered once into the tail vein to create an acute liver failure model. To this model, rh-HGF dissolved in PBS was administered into the tail vein at 0.15, 1.5, or 15 mg/kg 1 hour before administration of anti-Fas monoclonal antibody. For the control group (Control), PBS was administered into the tail vein. Five hours after the administration of anti-Fas monoclonal antibody, mice were retained under anesthesia by 3% isoflurane inhalation, blood was collected from the vein located behind the jaw bone, and Prothrombin time (PT) was measured with CoaguChek XS (Roche-diagnostics, #ES350009) and PT Test strips (Roche-diagnostics, #ES350054). […] The measurement of Aspartate Aminotransferase (AST) and Alanine transaminase (ALT) in the serum was each performed with L-type Wako AST·J2 (Wako) kit and L-type Wako ALT·J2 (Wako) kit and an automatic analysis device (Hitachi 7180 Automatic Analyzer, Hitachi High-Technologies). With the measurement results of PT, AST, ALT, and serum ApoA4 protein, Dunnett's multiple comparison test was carried out between the control and the rh-HGF administration groups (FIG. 4).

[6] = tested on: ApoA4 mRNA; experiment: Real-time PCR of ApoA4 mRNA from liver of healthy mice administered rh-HGF (Example 1); type: in vivo, mouse; conditions: rh-HGF 1.5 mg/kg intravenous, 8 and 24 hr; FIG. 1
Experimental: (§4) Using hepatocyte growth factor activator recombinantly expressed in Chinese hamster ovary (CHO) cells, human HGF recombinantly expressed in CHO cells were activated to obtain rh-HGF. BALB/cAnNCrlCrlj male 6 weeks-old mice (CHARLES RIVER JAPAN) were intravenously administered with Dulbecco's Phosphate buffered saline (PBS) (Wako, #045-29795) or rh-HGF (1.5 mg/kg). […] After euthanization, hepatic tissue was collected and immersed in RNA later (Ambion, #AM7021).
The same RNA as the sample employed for DNA microarray was reverse transcripted using High-Capacity cDNA Reverse Transcription Kit with RNase Inhibitor (Applied Biosystems, #4374966) to create cDNA. With the cDNA obtained as the template, the amount of ApoA4 mRNA expressed was examined by real-time PCR method. Hprt mRNA was used as the internal control for examination. For PCR reaction, PCR amplification reaction was carried out with TaqMan Fast Advanced Master Mix (Applied Biosystems, #4444557) and TaqMan Assay (ApoA4: Mm00431814_m1, Hprt: Mm03024075_m1, Applied Biosystems) and using ViiA7 Real-time PCR System (Applied Biosystems). […]
With the results of ApoA4 mRNA quantification, Dunnett's multiple comparison test was carried out between the control and the rh-HGF administration groups (FIG. 1).

[7] = tested on: ApoA4 gene expression; experiment: DNA microarray analysis of hepatic tissue of healthy mice administered rh-HGF; type: in vivo, mouse
Experimental: as §4
From the harvested liver, total RNA was purified with TRIZOL Reagent (Invitrogen, #15596-018), RNeasy Mini Kit (QIAGEN, #74104), and RNase-Free DNase set (QIAGEN, #79254). RNA concentration was measured by absorbance, and then quality check was carried out with RNA 6000 Nano Assay Kit (Agilent Technologies, #5067-1511) using 2100 Bioanalyzer (Agilent Technologies).
The DNA microarray used was SurePrint G3 mouse GE 8×60K (Agilent Technologies, #G4852A). […] Among this, as molecules that may appear to possibly exist as soluble proteins, those having information of “Extracellular” or “Plasma membrane” in Gene Ontology annotation were extracted.

[8] = tested on: ApoA4 protein; experiment: Western blot quantification of serum ApoA4 protein in Jo2 liver failure mice; type: in vivo, mouse; conditions: rh-HGF at 1.5, 5, or 15 mg/kg, FIG. 4
Experimental: To BALB/cAnNCrlCrlj male 6 weeks-old mice (CHARLES RIVER JAPAN), 0.23 mg/kg of anti-Fas monoclonal antibody (clone name: Jo2, BD Pharmingen, #554254, lot#3269634) was administered once into the tail vein to create an acute liver failure model. […] For the control group (Control), PBS was administered into the tail vein.
Quantification of serum ApoA4 protein was carried out according to Example 2.
With the measurement results of PT, AST, ALT, and serum ApoA4 protein, Dunnett's multiple comparison test was carried out between the control and the rh-HGF administration groups (FIG. 4).

[9] = PF-04217903 50 mg/kg oral 1 hour before rh-HGF
[10] = PF-04217903 100 nmol/L added 1 hour before rh-HGF
[11] = rh-HGF 0.5-15 mg/kg intravenous, 24 hours

Molecule	Effect on rh-HGF induction of serum ApoA4 protein [1, 9]	Effect on rh-HGF enhancement of human ApoA4 mRNA expression [2, 10]	Effect on rh-HGF induction of liver ApoA4 mRNA expression [3, 9]	Effect on rh-HGF enhancement of extracellular release of human ApoA4 protein [4, 10]	Effect on elevation of ALT [5]	Effect on elevation of AST [5]	Effect on extension of PT (Prothrombin time) [5]	ApoA4 mRNA expression in liver (real-time PCR, Hprt internal control) [6]	Signal value (average) 8 hours, ApoA4 (A_51_P327491) ([7]; liver, 8 hr after rh-HGF 1.5 mg/kg intravenous)	Change in expression (vs 0 hours) 8 hours Ratio, ApoA4 ([7]; liver, 8 hr after rh-HGF 1.5 mg/kg intravenous, vs PBS group)	Signal value (average) 24 hours, ApoA4 (A_51_P327491) ([7]; liver, 24 hr after rh-HGF 1.5 mg/kg intravenous)	Change in expression (vs 0 hours) 24 hours Ratio, ApoA4 ([7]; liver, 24 hr after rh-HGF 1.5 mg/kg intravenous, vs PBS group)	ApoA4 expression in liver (DNA microarray) ([7]; rh-HGF 1.5 mg/kg intravenous vs PBS only (Group 1))	Blood ApoA4 protein value [8]	ApoA4 protein expression in the serum [1, 11]	Human ApoA4 mRNA expression ([2]; human primary culture hepatocytes, rh-HGF 100, 300 or 1000 ng/mL, 24 hours)	ApoA4 mRNA expression in the liver [3, 11]	Extracellular release of human ApoA4 protein ([4]; human primary culture hepatocytes, culture supernatant, rh-HGF 100, 300 or 1000 ng/mL, 24 hours)
OCCn1cc(-c2cnc3nnn(Cc4ccc5ncccc5c4)c3n2)cn1 [PF-04217903, reference compound]	inhibited	inhibited	significantly inhibited	inhibited	–	–	–	–	–	–	–	–	–	–	–	–	–	–
rh-HGF: human HGF recombinantly expressed in CHO cells, activated with hepatocyte growth factor activator recombinantly expressed in CHO cells	–	–	–	–	strongly inhibited	strongly inhibited	strongly inhibited	strongly enhanced	15738	6.46	13453	5.52	enhancement of expression	significant elevation	induction of ApoA4 protein expression	strongly enhanced	significantly induced/enhanced	strongly enhanced
